This passage reports IC50 results from ChEMBL document CHEMBL1142255, “Potent pyrrolidine- and piperidine-based BACE-1 inhibitors” (Bioorg Med Chem Lett, 2008).

For experiment [1], the target named is T1, Beta-secretase 1 (Homo sapiens, UniProt P56817).
Experiment [2] concerns the target T1, Beta-secretase 1. This is another data set of the same source.

As usually defined, the IC50 is the concentration needed to halve the response being measured.

T1 sequence (P56817 whole entry): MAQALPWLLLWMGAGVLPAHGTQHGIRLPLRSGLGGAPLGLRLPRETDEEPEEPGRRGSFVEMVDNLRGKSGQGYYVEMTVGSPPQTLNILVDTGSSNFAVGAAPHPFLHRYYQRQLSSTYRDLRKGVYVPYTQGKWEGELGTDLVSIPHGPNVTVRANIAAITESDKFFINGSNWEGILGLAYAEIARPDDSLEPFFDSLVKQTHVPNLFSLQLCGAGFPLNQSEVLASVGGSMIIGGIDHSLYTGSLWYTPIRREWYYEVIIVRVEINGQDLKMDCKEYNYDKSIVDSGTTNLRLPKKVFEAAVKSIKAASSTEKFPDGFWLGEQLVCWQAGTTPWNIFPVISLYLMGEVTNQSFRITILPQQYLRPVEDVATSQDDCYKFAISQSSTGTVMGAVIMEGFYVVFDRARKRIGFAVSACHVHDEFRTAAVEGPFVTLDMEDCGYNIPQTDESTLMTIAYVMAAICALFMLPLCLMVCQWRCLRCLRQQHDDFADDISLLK

Take `CCCN(CCC)C(=O)c1cc(C)cc(C(=O)N[C@@H](Cc2cc(F)cc(F)c2)[C@H](O)[C@H]2C[C@@H](Cc3cccc(OC)c3)CCN2)c1`: at Beta-secretase 1 [1], it took 0.33 µM to reach half-maximal inhibition (IC50). This lies in the sub-micromolar range.

With `CCCN(CCC)C(=O)c1cc(C)cc(C(=O)N[C@@H](Cc2cc(F)cc(F)c2)[C@H](O)[C@H]2C[C@@H](Cc3ccccc3OC)CCN2)c1`, at Beta-secretase 1 [1], the IC50 was 1.35 µM.

Take `CCCN(CCC)C(=O)c1cc(C)cc(C(=O)N[C@@H](Cc2cc(F)cc(F)c2)[C@H](O)[C@H]2CCN2)c1`: the 50% inhibitory concentration (IC50) at Beta-secretase 1 [1] amounted to 0.77 µM; on Beta-secretase 1 [2], 2.8 µM.

As to `CCCN(CCC)C(=O)c1cc(C)cc(C(=O)N[C@@H](Cc2cc(F)cc(F)c2)[C@H](O)[C@H]2C[C@@H](Cc3ccc(OC)cc3)CCN2)c1`, the half-maximal inhibitory concentration (IC50) on Beta-secretase 1 [1] came to 0.44 µM; against Beta-secretase 1 [2] it was 2 µM.

As to `CCCN(CCC)C(=O)c1cc(C)cc(C(=O)N[C@@H](Cc2cc(F)cc(F)c2)[C@H](O)[C@H]2C[C@@H](OC)CN2)c1`, the half-maximal inhibitory concentration (IC50) is 0.187 µM at Beta-secretase 1 [1] and 0.78 µM at Beta-secretase 1 [2].

In the case of `CCCN(CCC)C(=O)c1cc(C)cc(C(=O)N[C@@H](Cc2cc(F)cc(F)c2)[C@H](O)[C@H]2C[C@@H](OC(C)C)CCN2)c1`, the IC50 was 0.12 µM against Beta-secretase 1 [1] and 0.858 µM at Beta-secretase 1 [2].

On to `CCCN(CCC)C(=O)c1cc(C)cc(C(=O)N[C@@H](Cc2cc(F)cc(F)c2)[C@H](O)[C@H]2C[C@@H](OCC3CCCCC3)CCN2)c1`, for which the IC50 at Beta-secretase 1 [1] is 0.012 µM; against Beta-secretase 1 [2] it was 0.567 µM.

As to `CCC[C@H]1CCN[C@@H]([C@@H](O)[C@H](Cc2cc(F)cc(F)c2)NC(=O)c2cc(C)cc(C(=O)N(CCC)CCC)c2)C1`, the IC50 came to 0.07 µM on Beta-secretase 1 [1] and 1.2 µM at Beta-secretase 1 [2].

Regarding `CCCN(CCC)C(=O)c1cc(C)cc(C(=O)N[C@@H](Cc2cc(F)cc(F)c2)[C@H](O)[C@H]2C[C@@H](CCc3ccccc3)CCN2)c1`, the IC50 against Beta-secretase 1 [1] turned out to be 0.191 µM; at Beta-secretase 1 [2], 1.85 µM.

Turning to `CCCN(CCC)C(=O)c1cc(C)cc(C(=O)N[C@@H](Cc2cc(F)cc(F)c2)[C@H](O)[C@H]2C[C@@H](C3CCCCC3)CCN2)c1`, the results for the IC50 against Beta-secretase 1 [1] and at Beta-secretase 1 [2] were 0.61 µM and 4.2 µM, respectively.

As to `CCCN(CCC)C(=O)c1cc(C)cc(C(=O)N[C@@H](Cc2cc(F)cc(F)c2)[C@H](O)[C@H]2C[C@@H](OCCOC)CCN2)c1`, the IC50 at Beta-secretase 1 [1] amounted to 0.004 µM; on Beta-secretase 1 [2] it was 0.11 µM.

Take `CCCN(CCC)C(=O)c1cc(C)cc(C(=O)N[C@@H](Cc2cc(F)cc(F)c2)[C@H](O)[C@H]2C[C@@H](O)CN2)c1`: the IC50 against Beta-secretase 1 [1] stood at 0.089 µM; against Beta-secretase 1 [2], 1.45 µM.

For the compound `CCCN(CCC)C(=O)c1cc(C)cc(C(=O)N[C@@H](Cc2cc(F)cc(F)c2)[C@H](O)[C@H]2C[C@@H](OC(C)=O)CCN2)c1`, the values for the IC50 against Beta-secretase 1 [1] and on Beta-secretase 1 [2] were 2 µM and 3 µM, respectively.

For `CCCN(CCC)C(=O)c1cc(C)cc(C(=O)N[C@@H](Cc2cc(F)cc(F)c2)[C@H](O)[C@H]2CCCN2)c1`, the IC50 against Beta-secretase 1 [1] is 0.065 µM; against Beta-secretase 1 [2], 0.33 µM.

As to `CCCN(CCC)C(=O)c1cc(C)cc(C(=O)N[C@@H](Cc2cc(F)cc(F)c2)[C@H](O)[C@H]2C[C@@H](CC3CCCCC3)CCN2)c1`, the IC50 amounted to 0.63 µM against Beta-secretase 1 [1] and 2 µM on Beta-secretase 1 [2].

Consider `CCCCO[C@H]1CCN[C@@H]([C@@H](O)[C@H](Cc2cc(F)cc(F)c2)NC(=O)c2cc(C)cc(C(=O)N(CCC)CCC)c2)C1`, for which the IC50 against Beta-secretase 1 [1] worked out at 0.007 µM; on Beta-secretase 1 [2], 0.16 µM.

In the case of `CCCN(CCC)C(=O)c1cc(C)cc(C(=O)N[C@@H](Cc2cc(F)cc(F)c2)[C@H](O)[C@H]2C[C@@H](OCCN(C)C)CCN2)c1`, the IC50 was 0.026 µM on Beta-secretase 1 [1] and 0.482 µM on Beta-secretase 1 [2].

Consider `CCCN(CCC)C(=O)c1cc(C)cc(C(=O)N[C@@H](Cc2cc(F)cc(F)c2)[C@H](O)[C@H]2C[C@@H](OCC3CC3)CCN2)c1`, for which the IC50 against Beta-secretase 1 [1] was determined as 0.006 µM; on Beta-secretase 1 [2], 0.121 µM.
